Results published in patent US10259844B2, “Endometriosis cell targeting peptide and uses thereof” (Sanford-Burnham Medical Research Institute, priority 2005, dated 2019).
Where no end group is shown, it is not given here. The star is where a group is joined. FITC = O=C1OC2(c3ccc(O)cc3Oc3cc(O)ccc32)c2ccc(NC(=S)*)cc21

What was measured:
[1] = tested on: A431 cells; experiment: Fluorescence microscopy of overlay on A431 cells; type: cell-based, human
Method: (§1) Ishikawa cells and A431 cells were grown on glass coverslips in 3.5 cm tissue culture plates. Each phage clone including z13 was added to these cells, incubated at 4° C. for 15 min, washed with cold PBS, and fixed with 1% paraformaldehyde (PFA) in PBS. Phage was detected using rabbit anti-T7 antibody and FITC-conjugated goat anti-rabbit IgG antibody. After washing three times with PBS, cells were fixed with 1% paraformaldehyde in PBS and inspected under a Zeiss Axioplan fluorescence microscope. Ishikawa cells grown on glass coverslips were incubated in medium containing FITC-z13 peptide (1 μg/ml) at 37° C. for 15 min. After washing with PBS, cells were fixed with 1% PFA in PBS, and inspected under the fluorescence microscope. Qdot-encapsulated and C16-z13 peptide coated liposomes were prepared as described above. Ishikawa cells were incubated with these liposomes at 37° C. for 15 min, washed with PBS, fixed with 1% PFA, and inspected under the fluorescence microscope. Qdot605-conjugated peptide, Qdot-cys-z13, or control peptide, Qdot-cys-m2, was added to the culture at 100 nM and left at 37° C. for 15 min.

[2] = tested on: Ishikawa cells; experiment: Fluorescence microscopy of overlay on Ishikawa cells; type: cell-based, human
Method: Twenty μl of C16-z13 peptide (10 mM in chloroform:methanol 2:1) was mixed with 20 μl phosphatidylcholine (100 mM in chloroform) and 10 μl cholesterol (100 mM in chloroform) in a round bottom flask and evaporated in a rotary evaporator. The sample was dried in a vacuum, dissolved in 500 μl 0.3M citric acid, and frozen and thawed three times, followed by sonication for 10 min. Five hundred μl of 0.2M Na2CO3 and 20 μl of 1 μM Qdot605 streptavidin was added and heated at 60° C. for 1 hour. After adding 1 ml of 20 mM Hepes buffer, pH7.2, the liposome solution was centrifuged at 90,000 rpm for 30 min at 4° C. and the pellet dissolved in PBS.
as §1

[3] = tested on: human endometrial tissues grafted onto the peritoneal wall; experiment: In vivo targeting in SCID mouse peritoneal endometriosis model; details: intraperitoneal injection, 30 min
Method: For in vivo targeting, Qdot-cys-z13 or Qdot-cys-m2 (200 nmoles in 200 μl PBS/mouse) was injected into the peritoneum of a SCID mouse that had received intraperitoneal grafts of human endometrial tissues. The abdomen of the mouse was massaged gently to distribute injected material to the entire peritoneal cavity. After 30 min, mice were sacrificed, and the endometrial graft and organs facing the peritoneum were isolated. Tissues were washed in PBS, embedded in O. C. T. compound (Sakura Finetechnical, Tokyo, Japan) and cryosections were made. Sections were fixed with cold methanol, covered with Vecta-shield with DAPI (Vector), and inspected with a fluorescence microscope.
Immunohistochemistry for the progesterone receptor (PR) was performed as follows: Frozen mouse tissue sections prepared from Qdot-cys-z13 injected mice, Qdot-cys-m2 injected mice, and control mice without Qdot injection were fixed in cold methanol for 15 min. Tissue sections were blocked with avidin (5 ng/ml) in PBS at room temperature for 15 min, followed by incubation with 10% goat serum containing biotin (5 μg/ml) for 1 hour. The tissue sections were then applied to immunohistochemistry with a diluted (1:100) anti-PR antibody (DAKO, Carpinteria, Calif.) at 4° C. for 20 hours. After washing with PBS, sections were incubated with biotinylated anti-rabbit IgG antibody (Zymed) and by streptavidin conjugated Qdot565. […]

## FITC-z13: synthetic fluorescence-tagged z13 peptide whose amino-terminus was conjugated ({FITC}-VRRADNRPG)
[1]
  fluorescence of fluorescent peptide on A431 cells: did not show fluorescence
[2]; 1 μg/ml, 37° C. 15 min
  binding of fluorescent peptide to Ishikawa cells: bound

## Qdot-cys-m2: Qdot605 conjugate of the control peptide cys-m2 CRGMSDTTAL (also: Qdot605 conjugate)
[3]
  fluorescence at the surface epithelia of endometriosis lesions: did not show fluorescence
  fluorescence in other mouse tissues facing the peritoneum: did not show fluorescence
[2]; 100 nM, 37° C. 15 min
  fluorescence of Qdot-conjugated peptide on Ishikawa cells: did not show fluorescence signals

## VRRADNRPG [z13 peptide]
[2]; conclusion from FITC, C16 liposome and Qdot conjugates
  binding to Ishikawa cells regardless of modification at the amino terminus: efficiently binds
